pIC50: −log10 of the molar value.
How the values were obtained:
[1] = Half life in Slc:ICR mouse at 0.5 mg/kg, iv measured for 4 to 8 hrs by LC/MS/MS analysis; assay type: ADME, organism-based; conditions: in vivo, time 4-8 hrs
[2] = Apparent permeability of the compound across apical side to basolateral side in human Caco-2 cells incubated for 2 hrs by LC-MS/MS analysis
[3] = Total clearance in Slc:ICR mouse at 0.5 mg/kg, iv measured for 4 to 8 hrs by LC/MS/MS analysis; assay type: ADME, organism-based; conditions: in vivo, time 4-8 hrs
[4] = Stability in mouse liver microsomes assessed as intrinsic clearance measured per mg protein
[5] = AUC (0 to 24 hrs) in Slc:ICR mouse at 1 mg/kg, po measured for 8 to 24 hrs by LC/MS/MS analysis; assay type: ADME, organism-based; parameters: dose 1 mg/kg, time upper 24 hrs, time lower 8 hrs, route po; conditions: in vivo
[6] = Oral bioavailability in Slc:ICR mouse at 1 mg/kg measured for 8 to 24 hrs by LC/MS/MS analysis; assay type: ADME, organism-based; conditions: in vivo, time 8-24 hrs
[7] = Volume of distribution in Slc:ICR mouse at 0.5 mg/kg, iv measured for 4 to 8 hrs by LC/MS/MS analysis; assay type: ADME, organism-based; conditions: in vivo, time 4-8 hrs
[8] = biological target: T1, Bromodomain-containing protein 4 (Homo sapiens, UniProt O60885); assay: Displacement of Biotin-tagged [Lys(5,8,12,16)Ac]H4(1 to 21) peptide from GST-tagged BRD4-BD1 (unknown origin) incubated for 3 hrs by HTRF based TR-FRET assay
[9] = biological target: T1, Bromodomain-containing protein 4; assay: Displacement of Biotin-tagged [Lys(5,8,12,16)Ac]H4(1 to 21) peptide from BRD4-BD2 (unknown origin) incubated for 3 hrs by HTRF based TR-FRET assay
[10] = biological target: Bromodomain-containing protein 2 (Homo sapiens, UniProt P25440); assay: Displacement of Biotin-tagged [Lys(5,8,12,16)Ac]H4(1 to 21) peptide from GST-tagged BRD2-BD1 (unknown origin) incubated for 3 hrs by HTRF based TR-FRET assay
Sequence of Bromodomain-containing protein 2 (P25440 whole entry): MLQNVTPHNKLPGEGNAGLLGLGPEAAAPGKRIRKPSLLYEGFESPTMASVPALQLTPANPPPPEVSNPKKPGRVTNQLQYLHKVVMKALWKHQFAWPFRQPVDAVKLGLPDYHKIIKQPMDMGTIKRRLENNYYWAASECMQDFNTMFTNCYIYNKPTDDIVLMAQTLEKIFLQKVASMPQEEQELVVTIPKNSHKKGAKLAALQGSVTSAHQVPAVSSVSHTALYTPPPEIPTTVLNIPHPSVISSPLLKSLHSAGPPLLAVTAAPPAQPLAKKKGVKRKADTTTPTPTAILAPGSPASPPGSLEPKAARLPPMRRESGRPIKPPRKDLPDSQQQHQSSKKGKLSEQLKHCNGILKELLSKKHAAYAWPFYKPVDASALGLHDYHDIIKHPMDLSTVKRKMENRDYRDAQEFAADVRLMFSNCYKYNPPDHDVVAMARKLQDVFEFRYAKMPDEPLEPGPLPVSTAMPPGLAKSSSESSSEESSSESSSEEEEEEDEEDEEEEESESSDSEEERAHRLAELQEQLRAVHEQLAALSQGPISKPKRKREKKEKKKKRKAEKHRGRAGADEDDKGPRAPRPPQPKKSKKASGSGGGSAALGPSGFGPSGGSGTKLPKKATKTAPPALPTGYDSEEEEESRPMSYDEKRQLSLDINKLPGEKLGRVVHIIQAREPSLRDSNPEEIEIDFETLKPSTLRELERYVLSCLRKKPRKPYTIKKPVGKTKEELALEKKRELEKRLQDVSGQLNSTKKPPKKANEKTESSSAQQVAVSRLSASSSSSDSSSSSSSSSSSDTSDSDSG

[11] = biological target: Bromodomain-containing protein 3 (Homo sapiens, UniProt Q15059); assay: Displacement of Biotin-tagged [Lys(5,8,12,16)Ac]H4(1 to 21) peptide from GST-tagged BRD3-BD1 (unknown origin) incubated for 3 hrs by HTRF based TR-FRET assay
Sequence of Bromodomain-containing protein 3 (Q15059 whole entry): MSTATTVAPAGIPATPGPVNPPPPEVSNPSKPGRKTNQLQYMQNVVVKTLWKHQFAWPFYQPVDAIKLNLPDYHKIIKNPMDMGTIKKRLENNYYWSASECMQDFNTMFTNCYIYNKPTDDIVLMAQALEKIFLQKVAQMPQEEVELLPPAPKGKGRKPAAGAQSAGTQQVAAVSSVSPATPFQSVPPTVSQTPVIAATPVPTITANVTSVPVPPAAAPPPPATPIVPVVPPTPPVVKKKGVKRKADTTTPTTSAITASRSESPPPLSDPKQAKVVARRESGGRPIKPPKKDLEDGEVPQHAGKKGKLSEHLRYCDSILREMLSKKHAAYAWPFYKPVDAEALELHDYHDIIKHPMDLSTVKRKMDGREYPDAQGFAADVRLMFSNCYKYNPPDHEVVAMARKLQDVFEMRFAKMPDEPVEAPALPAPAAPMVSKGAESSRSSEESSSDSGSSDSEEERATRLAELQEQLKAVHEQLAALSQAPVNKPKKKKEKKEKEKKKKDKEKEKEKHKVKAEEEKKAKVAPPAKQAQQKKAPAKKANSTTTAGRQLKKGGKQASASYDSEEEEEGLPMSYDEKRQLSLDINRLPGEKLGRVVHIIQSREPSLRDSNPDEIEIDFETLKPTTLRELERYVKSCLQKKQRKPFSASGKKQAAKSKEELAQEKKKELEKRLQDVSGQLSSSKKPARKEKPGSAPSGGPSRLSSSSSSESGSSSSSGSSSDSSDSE

[12] = biological target: Bromodomain testis-specific protein (Homo sapiens, UniProt Q58F21); assay: Displacement of Biotin-tagged [Lys(5,8,12,16)Ac]H4(1 to 21) peptide from GST-tagged BRDT-BD1 (unknown origin) incubated for 3 hrs by HTRF based TR-FRET assay
[13] = biological target: T1, Bromodomain-containing protein 4; assay: Inhibition of NanoLuc-tagged full length BRD4 (unknown origin) transfected in HEK293 cells coexpressing histone H4-halo-tagged fusion vector preincubated overnight followed by substrate addition and measured after 10 mins by NanoBRET assay; assay type: cell-based
[14] = Antiproliferative activity against human A375.S2 cells assessed as inhibition of cell growth incubated for 72 hrs by WST-1 assay; assay type: functional, cell-based; conditions: A375-S2, 72 h
[15] = Antitumor activity against human A375.S2 cells xenografted CAnN.Cg-Foxnlnu/CrlCrlj mouse model assessed as reduction in tumor growth at 60 mg/kg administered twice daily for 14 days relative to control; assay type: functional; parameters: scale not given: the % may be the effect or the level left; conditions: time 14 day
[16] = Toxicity in CAnN.Cg-Foxnlnu/CrlCrlj mouse xenografted with human A375.S2 cells assessed as body weight loss at 30 to 60 mg/kg administered twice daily for 14 days; assay type: organism-based; conditions: in vivo, 336 h, dose 30-60 mg/kg, time 14 day
in vivo = conditions: Slc:ICR, mouse, po, 1 mg/kg
[17] = Stability in human liver microsomes assessed as intrinsic clearance measured per mg protein
[18] = AUC (0 to 8 hrs) in Slc:ICR mouse at 1 mg/kg, po measured for 8 to 24 hrs by LC/MS/MS analysis; assay type: ADME, organism-based; parameters: time lower 8 hrs, dose 1 mg/kg, time upper 24 hrs, route po; conditions: in vivo

SMILES | Papp A→B at 2 h [2] [×10⁻⁶ cm/s] | CLH [4] [mL/min] | pIC50 [8] | CLH [17] [mL/min] | also measured
Cc1cc(-c2cc3c4c(c2)n(Cc2ccccc2)c(=O)n4CCO3)cn(C)c1=O | 12 | 17 | 7.82 |  | half-life [1]: 4.1 h; clearance [3]: 3.3 mL/min; AUC(0-t) [5]: 2420 ng·h/mL; bioavailability [6]: 49%; Vd [7]: 1.18 L/kg; pIC50 [9]: 7.26; pIC50 [10]: 7.72; pIC50 [11]: 7.60; pIC50 [12]: 7.17; pIC50 [13]: 7.09; pIC50 [14]: 6.27; Activity [15]: 41%; Activity [16]: Non-Toxic; Cmax (in vivo): 299 ng/mL
Cc1cc(-c2ccc3cnn(Cc4ccccc4)c3c2)cn(C)c1=O |  | 42 | 7.21 | 43 | 
Cc1cc(-c2ccc3[nH]c(=O)n(Cc4ccccc4)c3c2)cn(C)c1=O | 5.9 | 15 | 7.49 | 29 | clearance [3]: 40 mL/min; AUC(0-t) [18]: 178 ng·h/mL; bioavailability [6]: 70%; Cmax (in vivo): 37 ng/mL
CCS(=O)(=O)c1cc(-c2cc(C)c(=O)n(C)c2)cc2c1[nH]c(=O)n2Cc1ccccc1 |  |  | 6.95 |  | 
CCS(=O)(=O)Cc1cc(-c2cc(C)c(=O)n(C)c2)cc2c1n(C)c(=O)n2Cc1ccccc1 |  | 34 | 8.32 | 14 | 
Cc1cc(-c2ccc3c(c2)n(Cc2ccccc2)c(=O)n3C(C)C)cn(C)c1=O | 14 | 38 | 7.60 | 27 | 
CCS(=O)(=O)Cc1cc(-c2cc(C)c(=O)n(C)c2)cc2c1[nH]c(=O)n2Cc1ccccc1 | 0.02 | 11 | 8.38 | 11 | 
Cc1cc(-c2ccc3c(c2)n(Cc2ccccc2)c(=O)n3CC(C)C)cn(C)c1=O |  | 491 | 7.38 | 352 | 
Cc1cc(-c2ccc3ccn(Cc4ccccc4)c3c2)cn(C)c1=O |  |  | 7.03 |  | 
Cc1cc(-c2ccc3c(c2)N(Cc2ccccc2)C(=O)CN3)cn(C)c1=O |  |  | 6.91 |  | 
CCS(=O)(=O)NCc1cc(-c2cc(C)c(=O)n(C)c2)cc2c1[nH]c(=O)n2Cc1ccccc1 | 0.11 | 66 | 7.92 | 43 | 
CC[S+]([O-])c1cc(-c2cc(C)c(=O)n(C)c2)cc2c1[nH]c(=O)n2Cc1ccccc1 (centres undefined) |  |  | 6.80 |  | 
Cc1cc(-c2ccc3nnn(Cc4ccccc4)c3c2)cn(C)c1=O |  | 23 | 7.42 | 49 | 
CCS(=O)(=O)NCc1cc(-c2cc(C)c(=O)n(C)c2)cc2c1n(C)c(=O)n2Cc1ccccc1 | 0.03 | 53 | 7.41 | 37 | 
CCS(=O)(=O)Nc1cc(-c2cc(C)c(=O)n(C)c2)cc2c1[nH]c(=O)n2Cc1ccccc1 | 0.05 | < 9.6 | 7.72 | < 9.6 | 
Cc1cc(-c2ccc3c(c2)n(Cc2ccccc2)c(=O)n3C)cn(C)c1=O | 21 | 20 | 7.30 | 25 | 
COCCn1c(=O)n(Cc2ccccc2)c2cc(-c3cc(C)c(=O)n(C)c3)ccc21 |  |  | 7.35 |  | 
Cc1cc(-c2ccc3ncn(Cc4ccccc4)c3c2)cn(C)c1=O |  | 36 |  | 65 | Cmax (in vivo): < 1 ng/mL
